# Source: patent US20210255193A1, “LYSINE REACTIVE PROBES AND USES THEREOF” (The Scripps Research Institute, priority 2017, published 2021)
# Tests used:
# Experiment in all cases: competitive isoTOP-ABPP
# Format in all cases: binding
# [1] = target: T1, ARL6IP1 ADP-ribosylation factor-like protein 6-interacting (Homo sapiens, UniProt Q15041); details: for isoTOP-ABPP ratio (R) at liganded lysine Q15041_K188 / isoTOP-ABPP reactivity ratio at lysine Q15041_K188: 50 uM, in vitro; for isoTOP-ABPP ratio (R) at liganded lysine Q15041_K188: sol, 231; for isoTOP-ABPP reactivity ratio at lysine Q15041_K188: 231 sol
# T1 construct: isoTOP-ABPP experiments performed in cell lysates (in vitro); endogenous in cells; host or cells: soluble proteome of human cancer cell lines (MDA-MB-231; Ramos and Jurkat also prepared)
# Summary of the method: (§1)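 Lysate + fragment (50 μM activated ester / 100 μM guanidinylating agent) or DMSO → 0.1 mM STP-alkyne, 1 h, RT → CuAAC to TEV tags (compound light, DMSO heavy) → LC-MS. R = heavy/light MS1 area; liganded lysine if R≥4.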
# FAM136A Protein FAM136A = target: T2, FAM136A Protein FAM136A (Homo sapiens, UniProt Q96C01); details: for isoTOP-ABPP ratio (R) at liganded lysine Q96C01_K99: sol, 231
# T2 construct: isoTOP-ABPP experiments performed in cell lysates (in vitro); endogenous in cells; host or cells: soluble proteome of human cancer cell lines (MDA-MB-231; Ramos and Jurkat also prepared)
# Summary of the method: as §1
# [2] = target: T3, IFIT3 Interferon-induced protein with tetratricopeptide (Homo sapiens, UniProt O14879); details: for isoTOP-ABPP reactivity ratio at lysine O14879_K148: 50 uM, 231 sol, in vitro
# T3 construct: isoTOP-ABPP experiments performed in cell lysates (in vitro); endogenous in cells; host or cells: MDA-MB-231 soluble lysate
# T3 sequence (O14879 1-490): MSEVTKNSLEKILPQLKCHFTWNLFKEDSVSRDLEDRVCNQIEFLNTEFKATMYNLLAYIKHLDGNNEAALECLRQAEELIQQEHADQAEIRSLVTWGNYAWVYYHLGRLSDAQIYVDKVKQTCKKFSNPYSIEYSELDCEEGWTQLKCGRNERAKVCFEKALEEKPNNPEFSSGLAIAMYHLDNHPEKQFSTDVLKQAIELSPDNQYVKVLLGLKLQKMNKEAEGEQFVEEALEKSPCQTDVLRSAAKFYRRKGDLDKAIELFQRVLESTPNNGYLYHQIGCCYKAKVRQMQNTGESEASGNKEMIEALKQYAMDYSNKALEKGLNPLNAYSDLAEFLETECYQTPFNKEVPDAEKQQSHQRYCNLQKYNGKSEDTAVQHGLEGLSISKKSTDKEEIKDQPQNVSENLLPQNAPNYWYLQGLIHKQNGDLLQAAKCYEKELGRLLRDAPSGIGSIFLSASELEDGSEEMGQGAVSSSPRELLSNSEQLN
# Summary of the method: as §1
# [3] = target: T4, MRPL12 39S ribosomal protein L12, mitochondrial (Homo sapiens, UniProt P52815); details: for isoTOP-ABPP ratio, lysine P52815_K87: 50 uM_231_sol_in vitro, possible other lysine B4DLN1_K87, P52815_K91; for isoTOP-ABPP ratio (R) at liganded lysine P52815_K87: sol, 231
# T4 construct: isoTOP-ABPP experiments performed in cell lysates (in vitro); endogenous in cells; host or cells: soluble proteome of human cancer cell lines (MDA-MB-231, Ramos, Jurkat)
# Summary of the method: as §1
# [4] = target: T5, LDHB L-lactate dehydrogenase B chain (Homo sapiens, UniProt P07195); details: for isoTOP-ABPP ratio (R) at liganded lysine P07195_K82 / isoTOP-ABPP ratio (R) at liganded lysine P07195_K244: sol, 231
# T5 construct: isoTOP-ABPP experiments performed in cell lysates (in vitro); endogenous in cells; host or cells: MDA-MB-231 soluble lysate
# Summary of the method: as §1
# T1 sequence (Q15041 whole entry): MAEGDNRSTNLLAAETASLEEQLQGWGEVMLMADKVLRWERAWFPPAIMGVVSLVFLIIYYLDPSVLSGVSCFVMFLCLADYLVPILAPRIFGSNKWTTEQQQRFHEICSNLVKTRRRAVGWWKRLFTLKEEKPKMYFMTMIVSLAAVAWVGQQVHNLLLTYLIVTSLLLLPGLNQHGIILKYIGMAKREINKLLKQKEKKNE
# T5 sequence (P07195 whole entry): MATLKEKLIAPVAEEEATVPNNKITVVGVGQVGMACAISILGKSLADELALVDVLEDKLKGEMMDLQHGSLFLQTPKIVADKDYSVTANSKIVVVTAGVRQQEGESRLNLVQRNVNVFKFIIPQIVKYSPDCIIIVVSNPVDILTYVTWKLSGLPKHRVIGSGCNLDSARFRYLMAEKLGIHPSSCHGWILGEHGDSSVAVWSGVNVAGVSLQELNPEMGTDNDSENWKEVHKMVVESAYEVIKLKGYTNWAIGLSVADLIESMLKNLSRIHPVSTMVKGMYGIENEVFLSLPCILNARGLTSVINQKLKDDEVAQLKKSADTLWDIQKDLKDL
# T2 sequence (Q96C01 whole entry): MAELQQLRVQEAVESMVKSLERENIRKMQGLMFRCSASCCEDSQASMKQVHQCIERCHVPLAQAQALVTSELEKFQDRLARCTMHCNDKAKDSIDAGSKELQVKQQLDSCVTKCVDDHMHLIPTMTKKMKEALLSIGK
smiles,measurement,setting,value
"CC(=O)Oc1ccc([N+](=O)[O-])cc1[N+](=O)[O-] [fragment 43, 2,4-Dinitrophenyl acetate]",isoTOP-ABPP ratio (R) at liganded lysine Q15041_K188,[1],1.4
same,isoTOP-ABPP ratio (R) at liganded lysine Q96C01_K99,"FAM136A Protein FAM136A; 50 uM, in vitro",1.1
"O=C(Oc1c(F)c(F)cc(F)c1F)c1cc(C(F)(F)F)cc(C(F)(F)F)c1 [fragment 48, 2,3,5,6-Tetrafluorophenyl 3,5-bis(trifluoromethyl)benzoate]","isoTOP-ABPP ratio, lysine Q15041_K188",[1]; 50 uM_231_sol_in vitro,3.5
same,"isoTOP-ABPP ratio, lysine Q96C01_K99",FAM136A Protein FAM136A; 50 uM_231_sol_in vitro,5.5
same,"isoTOP-ABPP ratio, lysine O14879_K148",[2]; 50 uM_231_sol_in vitro,0.7
same,"isoTOP-ABPP ratio, lysine P52815_K87",[3],0.9
"CC(C)(C)OC(=O)N=C(NC(=O)OC(C)(C)C)n1cccn1 [fragment 50, reference compound]","isoTOP-ABPP ratio, lysine Q15041_K188",[1]; 100 uM_231_sol_in vitro,3.4
same,"isoTOP-ABPP ratio, lysine O14879_K148",[2]; 100 uM_231_sol_in vitro,1.4
same,"isoTOP-ABPP ratio, lysine P07195_K82",[4]; 100 uM_231_sol_in vitro,0.9
same,"isoTOP-ABPP ratio, lysine P07195_K244",[4]; 100 uM_231_sol_in vitro,1.1
"N#Cc1ccc(C(=O)Oc2ccc([N+](=O)[O-])cc2[N+](=O)[O-])cc1 [fragment 44, 2,4-Dinitrophenyl 4-cyanobenzoate]","isoTOP-ABPP ratio, lysine Q15041_K188",[1]; 50 uM_231_sol_in vitro,1.1
same,"isoTOP-ABPP ratio, lysine O14879_K148",[2]; 50 uM_231_sol_in vitro,2.2
same,"isoTOP-ABPP ratio, lysine P07195_K82",[4]; 50 uM_231_sol_in vitro,1.0
same,"isoTOP-ABPP ratio, lysine P07195_K244",[4]; 50 uM_231_sol_in vitro,1.1
same,"isoTOP-ABPP ratio, lysine P52815_K87",[3],1.1
"O=C(Oc1ccc([N+](=O)[O-])cc1[N+](=O)[O-])c1ccc(-c2ccccc2)cc1 [fragment 37, 2,4-Dinitrophenyl [1,1′-biphenyl]-4-carboxylate]",isoTOP-ABPP ratio (R) at liganded lysine Q15041_K188,[1],1.8
same,isoTOP-ABPP ratio (R) at liganded lysine Q96C01_K99,"FAM136A Protein FAM136A; 50 uM, in vitro",1.0
same,isoTOP-ABPP ratio (R) at liganded lysine P07195_K82,"[4]; 50 uM, in vitro",0.8
same,isoTOP-ABPP ratio (R) at liganded lysine P07195_K244,"[4]; 50 uM, in vitro",0.8
"O=C(CCc1ccc2c(c1)OCO2)Oc1ccc([N+](=O)[O-])cc1[N+](=O)[O-] [fragment 45, 2,4-Dinitrophenyl 3-(benzo[d][1,3]dioxol-5-yl)propanoate]","isoTOP-ABPP ratio, lysine Q15041_K188",[1]; 50 uM_231_sol_in vitro,2.2
same,"isoTOP-ABPP ratio, lysine Q96C01_K99",FAM136A Protein FAM136A; 50 uM_231_sol_in vitro,1.0
same,"isoTOP-ABPP ratio, lysine O14879_K148",[2]; 50 uM_231_sol_in vitro,2.7
same,"isoTOP-ABPP ratio, lysine P52815_K87",[3],1.8
"COC(=O)NC(=NC(=O)OCC1c2ccccc2-c2ccccc21)n1cccn1 [fragment 49, N-Methoxycarbonyl-N′-9-fluorenylmethoxycarbonyl-pyrazole-1-carboxamidine]","isoTOP-ABPP ratio, lysine Q96C01_K99",FAM136A Protein FAM136A; 100 uM_231_sol_in vitro,1.3
"O=C(Oc1ccc([N+](=O)[O-])cc1[N+](=O)[O-])c1ccc2ccccc2n1 [fragment 35, 2,4-Dinitrophenyl quinoline-2-carboxylate]",isoTOP-ABPP ratio (R) at liganded lysine Q15041_K188,[1],1.4
same,isoTOP-ABPP ratio (R) at liganded lysine P07195_K82,"[4]; 50 uM, in vitro",0.6
same,isoTOP-ABPP ratio (R) at liganded lysine P52815_K87,"[3]; 50 uM, in vitro",0.9
"CCn1cc(C(=O)Oc2c(F)c(F)c(F)c(F)c2F)c(=O)c2ccc(C)nc21 [fragment 28, Pentafluorophenyl 1-ethyl-7-methyl-4-oxo-1,4-dihydro-1,8-naphthyridine-3-carboxylate]",isoTOP-ABPP reactivity ratio at lysine O14879_K148,[2],1.0
same,isoTOP-ABPP reactivity ratio at lysine P52815_K87,"[3]; 50 uM, 231 sol, in vitro",0.8
"CC(C)(C)OC(=O)NCCCC(=O)Oc1ccc([N+](=O)[O-])cc1[N+](=O)[O-] [fragment 41, 2,4-Dinitrophenyl 4-((tert-butoxycarbonyl)amino)butanoate]",isoTOP-ABPP ratio (R) at liganded lysine Q15041_K188,[1],1.3
same,isoTOP-ABPP ratio (R) at liganded lysine Q96C01_K99,"FAM136A Protein FAM136A; 50 uM, in vitro",0.9
same,isoTOP-ABPP ratio (R) at liganded lysine P07195_K244,"[4]; 50 uM, in vitro",20.0
same,isoTOP-ABPP ratio (R) at liganded lysine P52815_K87,"[3]; 50 uM, in vitro",4.1
"O=C(Oc1c(F)c(F)c(F)c(F)c1F)C1CCN(C(=O)OCc2ccccc2)CC1 [fragment 24, 1-Benzyl 4-(pentafluorophenyl) piperidine-1,4-dicarboxylate]",isoTOP-ABPP reactivity ratio at lysine Q15041_K188,[1],2.4
same,isoTOP-ABPP reactivity ratio at lysine O14879_K148,[2],1.3
"O=C(Oc1c(F)c(F)c(F)c(F)c1F)c1ccc2ccccc2n1 [fragment 25, Pentafluorophenyl quinoline-2-carboxylate]",isoTOP-ABPP reactivity ratio at lysine O14879_K148,[2],1.9
"Cn1cc(CC(=O)Oc2ccc([N+](=O)[O-])cc2[N+](=O)[O-])c2ccccc21 [fragment 32, 2,4-Dinitrophenyl 2-(1-methyl-1H-indol-3-yl)acetate]",isoTOP-ABPP reactivity ratio at lysine Q15041_K188,[1],5.9
same,isoTOP-ABPP reactivity ratio at lysine Q96C01_K99,"FAM136A Protein FAM136A; 50 uM, 231 sol, in vitro",0.9
same,isoTOP-ABPP reactivity ratio at lysine P07195_K82,"[4]; 50 uM, 231 sol, in vitro",0.8
same,isoTOP-ABPP reactivity ratio at lysine P07195_K244,"[4]; 50 uM, 231 sol, in vitro",1.0
